Test results from patent US20260014147A1, “STAT6 DEGRADERS” (Gilead Sciences, Inc., priority 2024, published 2026).

What was measured:
[1] = target: T1, STAT6 (endogenous, HiBiT-tagged) in HeLa LgBiT clone 4.14 cells (Homo sapiens, UniProt P42226); test: STAT6 Degrader Assay (HiBiT based, HeLa LgBiT clone 4.14 cells, luminescence, DC50); format: cell-based; conditions: Emax provided for test compounds with <80% Emax (and 2c15), geometric mean, read-out: STAT6 degradation Emax
T1 construct: These cells express endogenous STAT6; host or cells: HeLa LgBiT clone 4.14
T1 sequence (P42226 1-847): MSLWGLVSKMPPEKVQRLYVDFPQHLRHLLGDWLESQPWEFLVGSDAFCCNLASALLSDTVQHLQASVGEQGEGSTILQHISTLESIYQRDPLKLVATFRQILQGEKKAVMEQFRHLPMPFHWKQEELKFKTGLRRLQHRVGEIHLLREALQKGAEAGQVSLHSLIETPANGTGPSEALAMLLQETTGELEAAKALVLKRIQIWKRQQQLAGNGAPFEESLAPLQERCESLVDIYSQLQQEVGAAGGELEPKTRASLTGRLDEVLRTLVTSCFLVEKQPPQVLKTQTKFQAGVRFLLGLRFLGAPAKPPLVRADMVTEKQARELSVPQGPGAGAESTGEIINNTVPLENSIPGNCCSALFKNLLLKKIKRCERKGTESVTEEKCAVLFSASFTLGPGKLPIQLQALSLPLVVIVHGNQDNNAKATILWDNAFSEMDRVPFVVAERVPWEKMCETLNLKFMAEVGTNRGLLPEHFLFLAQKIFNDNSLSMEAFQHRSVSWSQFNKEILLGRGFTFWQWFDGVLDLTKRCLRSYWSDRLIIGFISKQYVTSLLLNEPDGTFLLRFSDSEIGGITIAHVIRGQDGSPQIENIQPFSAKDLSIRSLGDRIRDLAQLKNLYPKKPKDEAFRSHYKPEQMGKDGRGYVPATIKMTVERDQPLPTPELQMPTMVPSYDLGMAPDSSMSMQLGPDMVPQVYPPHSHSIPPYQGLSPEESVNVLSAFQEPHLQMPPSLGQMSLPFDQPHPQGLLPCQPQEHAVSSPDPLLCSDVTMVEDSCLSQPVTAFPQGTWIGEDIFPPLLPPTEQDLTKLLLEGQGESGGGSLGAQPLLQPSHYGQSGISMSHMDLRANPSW
Procedure, shortened: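 Remaining STAT6 is read as NanoBiT luminescence after 0.5 h with Nano-Glo, in HeLa LgBiT clone 4.14 cells expressing endogenous HiBiT-tagged STAT6, following 4-24 h compound incubation at 37 °C. Full degradation is set by 50 µM terfenadine, which kills the cells; degradation plotted against log compound concentration.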

[2] = tested on: Eotaxin-3 (CCL26) release in human whole blood stimulated with IL-4; test: Human Whole Blood Eotaxin-3 Assay (IL-4 stimulated, inhibition of eotaxin-3 release); format: cell-based; conditions: Homo sapiens, EC50 provided for test compounds with >80% Emax, geometric mean across assay runs and batches
Procedure, shortened: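 Lithium-heparin human whole blood preincubated 2 h at 37 °C with compounds (4-fold serial dilution, triplicate, 0.5% DMSO final), then stimulated with 400 pM IL-4 for 48 h. Eotaxin-3 (CCL26) in supernatant quantified by MSD immunoassay.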

[3] = target: T2, human STAT6 (truncated, aa122-658, with N-terminal His-tag) (Homo sapiens, UniProt P42226); test: Surface Plasmon Resonance (SPR) assay: binding of compounds to immobilized human STAT6; conditions: immobilized human STAT6 (aa122-658), 25° C.; geometric mean
T2 construct: Human STAT6 (truncated, aa122-658, with N-terminal His-tag, expressed in insect cells); His-tag (N); made in house; host or cells: insect cells
T2 sequence (P42226 122-658): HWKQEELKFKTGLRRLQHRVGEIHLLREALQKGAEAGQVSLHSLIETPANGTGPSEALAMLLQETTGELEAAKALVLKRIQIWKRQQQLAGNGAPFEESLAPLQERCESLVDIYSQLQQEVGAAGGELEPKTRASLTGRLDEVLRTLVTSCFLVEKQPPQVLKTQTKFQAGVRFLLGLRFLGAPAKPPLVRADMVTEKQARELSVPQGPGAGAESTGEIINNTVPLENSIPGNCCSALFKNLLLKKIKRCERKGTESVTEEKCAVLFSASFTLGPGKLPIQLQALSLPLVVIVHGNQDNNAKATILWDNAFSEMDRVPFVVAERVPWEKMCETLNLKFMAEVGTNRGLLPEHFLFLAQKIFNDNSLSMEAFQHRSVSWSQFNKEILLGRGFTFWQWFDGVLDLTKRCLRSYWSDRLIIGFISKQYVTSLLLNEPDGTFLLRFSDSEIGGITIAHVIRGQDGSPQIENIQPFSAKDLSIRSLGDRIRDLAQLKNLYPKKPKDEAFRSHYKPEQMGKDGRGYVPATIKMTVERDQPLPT
Protocol: SPR was used to confirm and quantify binding of compounds to human STAT6. Biacore instruments from the 8K-series (Cytiva) were used, and measurements were performed at 25° C. Human STAT6 (truncated, aa122-658, with N-terminal His-tag, expressed in insect cells) was immobilized in the active flow cells on a CM5 chip using amine-coupling (default settings) at 10 μg/ml in 10 mM acetate buffer pH 5.5, at a contact time of 120-420 sec. and a flow rate of […]. Reference flow cells were deactivated using blank immobilization. PBS-P+ (Cytiva) supplemented with 2% DMSO was used as running buffer, and solvent correction was applied. Compounds were tested by multi-cycle kinetics injections using a contact time of 60 sec., dissociation time of up to 300 sec., and a flow rate of […].
Solvent-corrected, reference-subtracted and blank-corrected data was processed and binding isotherms were fitted according to a single report point from each sensorgram (Standard: Late binding (5 sec. before injection end); alternative: Earlier report point according to binding profile). Data fitting was done both with unfixed Rmax and with Rmax fixed to the theoretical value* assuming 1:1 binding to allow processing of data from both weak and strong binders as well as to evaluate binding stoichiometry.
Positive controls were run at the beginning, during, and at the end of the screen to evaluate surface activity. Generally surface activity was only affected to a minor degree, and no corrections were applied.
*Equation for calculation of the theoretical Rmax (Theoretical Rmax=(MW Analyte/MW Ligand) x immobilization level).
The sensorgrams for Examples 2a1, 2t1, 2m1, and 2a2 are shown below (where RU is plotted vs. time in seconds; dotted lines/points were excluded from the analysis due to effects from non-specific binding).

Row | SMILES | Emax [1] | EC50 [2] | Kd [3]
1 | Cn1c(CN2CCC(c3ccc(C(=O)N4CCC(CN5CCN(c6ccc(NC7CCC(=O)NC7=O)cc6F)CC5)CC4)cc3)CC2)cc2c(-c3ccc4[nH]ncc4c3)ccnc21 (centres unmarked) [Example 2c1, 3-((4-(4-((1-(4-(1-((4-(1H-indazol-5-yl)-1-methyl-1H-pyrrolo[2,3-b]pyridin-2-yl)methyl)-piperidin-4-yl)benzoyl)piperidin-4-yl)methyl)piperazin-1-yl)-3-fluorophenyl)amino)piperidine-2,6-dione] | 70 to 80% | 556 nM | 193 nM
2 | Cn1c(CN2CCC(c3ccc(C(=O)N4CCC(CN5CCN(c6ccc(NC7CCC(=O)NC7=O)cc6F)CC5)CC4)cc3)CC2)cc2c(-c3cnc(N)c(F)c3)ccnc21 (centres unmarked) [Example 2c3, 3-((4-(4-((1-(4-(1-((4-(6-amino-5-fluoropyridin-3-yl)-1-methyl-1H-pyrrolo[2,3-b]pyridin-2-yl)-methyl)piperidin-4-yl)benzoyl)piperidin-4-yl)methyl)piperazin-1-yl)-3-fluorophenyl)amino)piperidine-2,6-dione] | < 20% |  | < 20 nM
